We go through one compound from patent US9724337B2, “AG-205 for the treatment of breast cancer” (University of Kentucky Research Foundation, priority 2009, dated 2017).

The subject of test [1] is Met receptor tyrosine kinase. Put plainly: Western blot of Met in A549 cells. The test is classed as cell-based, human. On the procedure:
(§1) Immunological techniques. Cells were extracted in RIPA buffer (50 mM Tris, pH 8.0, 1% Nonidet P-40, 150 mM NaCl, 0.5% sodium deoxycholate, 0.1% sodium dodecyl sulfate, 1 mM phenylmethylsulfonyl fluoride, 10 μg/ml of aprotinin, leupeptin and pepstatin) for standard western blotting. The antibodies used in the study were anti-caveolin-1 (N-20, Santa Cruz Biologicals, # sc-894), anti-EGFR (1005, Santa Cruz, # sc-03), anti-ku70 (A-9, Santa Cruz # sc-5309), anti-Met (C-12, Santa Cruz # sc-10), anti-PARP (H-250, Santa Cruz # sc-7150), anti-phosphotyrosine (P-Tyr-100, Cell Signaling), anti-Pgrmc1 (Novus Biologics) and anti-tubulin (Neomarkers). Some western blots for Pgrmc1 were performed with a polyclonal antibody called anti-PGR-UK1 which was raised in rabbits to an internal 10 amino acid peptide.
On the technique in general: A western blot detects proteins with antibodies after separation by electrophoresis.

In the next test the test system is EGFR. The test can be described thus: Western blot of EGFR levels in MDA-MB-468 cells. The format is cell-based, human. As to conditions: 12-50 μM dose. On the procedure: (§2) Panel A is a diagram indicating the positions of the siRNA molecules targeting Pgrmc1. Exons 1, 2 and 3 are indicated by “ex”. MDA-MB-468 cells were transfected with a control siRNA (siCON, lanes 1 and 3) or two separate siRNAs targeting Pgrmc1 (siPGR and siPGR2, lanes 2 and 4, respectively). In panels B-E and H-L, protein levels were analyzed by western blot for EGFR (B), phospho-tyrosine (C), Pgrmc1 (D) and ku70 (E), as a control for protein loading. Panels F—H show western blot analyses for (F) IGF-1R, (G) c-Kit and (H) tfR. In panels I and J, transcript levels were analyzed by reverse transcriptase-PCR for EGFR (I) and Pgrmc1 (J). The top band indicates the gene of interest, while actin primers were included in the same reaction as a control for cDNA loading. […] In panels K-L, MDA-MB-468 cells were treated with increasing doses of the Pgrmc1 ligand AG-205. Protein expression was analyzed by western blot for EGFR (K) and ku70 (L). Cells were treated with 0 (lanes 1), 2 (lanes 2), 10 (lanes 3) or 50 (lanes 4) μM AG-205 for 24 hours in serum-free medium. In panels M-N, A549 cells were treated with the same doses and analyzed for EGFR (M) and ku70 (N). […] Expression analyses were repeated at least in duplicate throughout.
(§3) Immunological techniques. […]

The next test concerns MDA-MB-231. The test can be described thus: AG-205 viability assay in MDA-MB-231 cells. As to conditions: MDA-MB-231, breast, serum-starved, EGFR wild-type. The format is cell-based. On the procedure:
(A) Pgrmc1 (SEQ ID NO: 7) shares homology with AtMAPR2 (SEQ ID NO: 8) (underlined residues), which was the target for a screen for small molecule ligands. The putative heme-binding Tyr106 and Tyr112 are indicated with black boxes. (B) The molecular structure of AG-205 includes multiple aromatic components. (C) Spectroscopic scan of Pgrmc1 with vehicle control compared with vehicle plus 50 µM AG-205. The decrease in relative absorbance at 400 nm is consistent with an AG-205-induced change in the spectral properties of Pgrmc1-heme. The scan is representative of four separate scans using different Pgrmc1 protein preparations. […] Percent viability was determined by cell counting, and “% viability” refers to the cell number relative to the untreated control.
Proliferation, anchorage-independent growth and migration assays. […] Following the harvest of the final time point, the cells from each time point were counted using a Bright-line hemocytometer (Hausser Scientific).
MTT viability assays were performed as described previously. […] The cells were then incubated with 0.5 mg/ml of 3-[4,5-dimethylthiazol-2-y]-2,5-diphenyltetrazolium bromide for 1.5 hours, at which time the media was removed, the precipitated crystals were dissolved in dimethyl sulfoxide, and the absorbance at 590 nm was measured using a Bio-Tek μQuant spectrophotometer.

Test [2] has as its system polyADP ribose polymerase (PARP) or caspase 3. Put plainly: Cleavage of PARP or caspase 3 in AG-205-treated cancer cells. The format is cell-based, human. The settings on record: AG-205-treated cells losing viability. On the procedure: as §1
A further test addresses Pgrmc1-heme complex (Homo sapiens, UniProt O00264). The test can be described thus: Spectroscopic scan of purified Pgrmc1 with AG-205. The test is classed as binding. As to conditions: AG-205 added to purified Pgrmc1, spectroscopic scan. On the procedure:
(A) Pgrmc1 (SEQ ID NO: 7) shares homology with AtMAPR2 (SEQ ID NO: 8) (underlined residues), which was the target for a screen for small molecule ligands. The putative heme-binding Tyr106 and Tyr112 are indicated with black boxes. (B) The molecular structure of AG-205 includes multiple aromatic components. (C) Spectroscopic scan of Pgrmc1 with vehicle control compared with vehicle plus 50 µM AG-205. The decrease in relative absorbance at 400 nm is consistent with an AG-205-induced change in the spectral properties of Pgrmc1-heme. The scan is representative of four separate scans using different Pgrmc1 protein preparations. The lower scan is a comparison of purified Pgrmc1 without and with the vehicle control (DMSO). Panels D (A549 cells) and E (MDA-MB-231 cells) are viability assays of cells maintained in 0.1% serum (solid line) or 10% serum (dashed line) and treated with increasing doses of AG-205. Percent viability was determined by cell counting, and “% viability” refers to the cell number relative to the untreated control.

Test [3] relates to ku70. Put plainly: Western blot of ku70 levels in MDA-MB-468 cells. The settings on record: AG-205 treatment. The test is classed as cell-based, human. On the procedure: as §2, §3
Test [4] relates to cancer cell lines from lung, breast, colon and prostate tissues. Put plainly: Toxicity to multiple cancer cell lines. The format is cell-based. As to conditions: most active when serum is absent.
A further test has as its system A549 cells. The test can be described thus: FACS cell cycle analysis. The test is classed as cell-based, human. The settings on record: triplicate FACS analysis, AG-205-treated cells. On the procedure:
(A) Graph of triplicate FACS analysis. […] (B) Protein expression was analyzed by western blot for Pgrmc1 (top) and ku70 (bottom). Cells were treated with 0 (lanes 1), 2 (lanes 2), 10 (lanes 3) or 50 (lanes 4) μM AG-205 for 24 hours. […] (C-D) The panels show western blots of phosphorylated ERK1/2 (upper panels) and total ERK1/2 (lower panels) The lanes in panel C are A549/con (lane 1), A549/RNAi (lane 2), A549/LacZ (lane 3) and A549/PGR-hbd cells (lane 4) following 48 hours serum starvation. The cells infected with adenovirus were similar to those described in FIG. 3, panels C and D. In panel D, A549 cells were treated with vehicle (lane 1) or 20 μM AG-205 (lane 2) for 24 hours in serum-free media. (E) A549/con (solid line) or A549/RNAi (dashed line) cells were treated with increasing doses of AG-205 for 72 hours and viability was measured by counting, and “% viability” refers to the cell number relative to the untreated control. […] Percent viability was determined by cell counting, and “% viability” refers to the cell number relative to the untreated control. […]
FACS was performed essentially as described previously (Mallory (2005)). […] FACS analysis was performed at the University of Kentucky flow cytometry facility, and the data were analyzed using Modfit software (Verity, Inc.).
In general terms: Flow cytometry measures light scatter and fluorescence of single cells or particles in a stream.

Another test concerns NIH-3T3 cells. Put plainly: Growth inhibition of NIH-3T3 cells. The test is classed as cell-based. The settings on record: wild-type EGFR.
The test system of test [5] is ku70. The test can be described thus: Western blot of ku70 in A549 cells. The format is cell-based, human. On the procedure: as §2, §3

Chain of Pgrmc1-heme complex (O00264 whole entry, one chain of several): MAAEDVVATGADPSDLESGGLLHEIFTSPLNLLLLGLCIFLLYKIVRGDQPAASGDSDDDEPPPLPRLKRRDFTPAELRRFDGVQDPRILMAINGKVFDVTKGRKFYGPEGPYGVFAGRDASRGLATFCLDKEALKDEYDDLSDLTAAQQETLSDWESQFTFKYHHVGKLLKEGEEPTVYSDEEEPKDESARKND

The IC50 is the point on the concentration scale where inhibition reaches its midpoint. For `Cc1ccc2c(c1)[C@H]1CN(C)CC[C@H]1N2C(=O)CSc1nnnn1-c1ccc(Cl)cc1` [AG-205], the “stability of Met receptor tyrosine kinase” value in [1] is on record as “little effect”. For the same compound, the “decrease in EGFR levels” value with EGFR is 14 fold. The same compound yielded an IC50 in the test with MDA-MB-231 of 18 µM. The “cleavage of PARP or caspase 3” value in [2] was “did not detect an increase”. Besides, the “change in absorbance of purified Pgrmc1” value at Pgrmc1-heme complex is reported as “shift in absorbance at approximately 400 nm”. In addition, the Ku70 levels result in the test on ku70 [3] was “not affected”. The “toxicity to cancer cell lines” value in test [4] is “toxic to multiple cancer cell lines”. The cell cycle distribution entry in the test with A549 cells was “significant G1 arrest and accumulation of sub-G1 cells”. In the test on NIH-3T3 cells, the growth inhibition result was “inhibited”. Moreover, in the test on ku70 [5], the ku70 levels entry is given as “unaffected”.
